Values joined by “and” are separate entries in the source; they are usually repeats but may differ in a detail not shown here. Equal entries are not always repeated.
Columns and labels:
[1] = system: splenic lymphocytes B and lymphocytes T; assay: Determination of the number of lymphocytes B and lymphocytes T; assay type: in vivo, female HAN-NmRI strain mice; settings: 25, 2.5 and 0.25 μg by injection on 3 consecutive days after Brewer's thioglycolate medium i.p.; spleen isolated day 4
Protocol: (§1) Immunological studies were performed on female HAN-NmRI strain mice of 3-4 weeks, weighing from 18-21 g.
(§2) In tests 1.1 to 1.5, the animals were first administered the Brewer's thioglycolate medium by i.p. injection, which was followed after 6 hours by the injection of 0.5 ml of a solution containing 25 μg, 2.5 μg and 0.25 μg respectively of N-acetyl-muramyl-L-alanyl-D-isoglutamine (muramyl dipeptide, MDP) or of N-(7-oxooctanoyl)-L-alanyl-D-isoglutamine (compound 1, Example 19). Equal doses were administered to the animals on days 2 and 3. On day 4 the animals were sacrificed and the spleen and the peritoneal macrophages were isolated.
To the isolated splenic lymphocytes there were added fluorescein isothiocyanate labelled antimouse antibodies (for the determination of lymphocytes B) and anti-Thy 1 monoclonal antibodies (for the determination of lymphocytes T) respectively. After incubation and rinsing with RPMI 1640 medium (Gibco, Great Britain), the lymphocytes were counted by fluorescence microscopy.

peritoneal macrophages [2] = assay: Determination of the number of macrophages; assay type: in vivo, female HAN-NmRI strain mice; settings: 25, 2.5 and 0.25 μg on 3 consecutive days; peritoneal cavity washings three days after thioglycolate stimulation
Protocol: as §1, §2
The number of macrophages in the peritoneal cavity washings was determined three days after the stimulation with Brewer's thioglycolate medium. The cells were suspended in ice-cold RPMI 1640 medium, to which trypan blue was added, and counted in Neubauer's chamber.

[3] = system: splenic lymphocytes (lymphocytes T); assay: Blast transformation of lymphocytes by mithogens (concanavalin A, tritium labelled thymidine incorporation); assay type: in vivo, female HAN-NmRI strain mice; settings: for Amount of active thymidine incoporated in lymphocyte DNA (cpm), x ± s.e.m: lymphocytes stimulated in vitro with concanavalin A
Protocol: as §1, §2
Isolated splenic lymphocytes were prepared in a concentration of 1×10^6 /ml in the RPMI 1640 medium, to which there were added 10% of foetal calf serum (FCS) (Sera-Lab, Great Britain), 1 ml of 200 mM L-glutamine solution and 1 ml of an antibiotic solution (100 U/ml of penicillin and 100 μg/ml of streptomycin) for 100 ml of complete medium. To each flat bottom well of a microtitration plate (T grade, Nunc, Denmark) 100 μl of the cell suspension were distributed. The cells were stimulated in vitro by adding concanavalin A (con A) (Pharmacia, Sweden) at respective concentrations of 16, 8, and 4 μg/ml. Control lymphocyte cultures were grown in basal medium only. The cells were then incubated at 37° C., 5% CO2 and 95% humidity for 2 days, followed by the addition of tritium labelled thymidine. After 16 hours the samples were prepared for the measurement in a β-counter. The results were expressed as incorporation indexes with respect to the control group of the animals.

peritoneal macrophages [4] = assay: Activation of peritoneal macrophages without additional in vitro stimulation with PMA (ferricytochrome C reduction); assay type: in vivo, female HAN-NmRI strain mice; settings: for increase of macrophage activity: versus control
Protocol: as §1, §2
(§3) The peritoneal cavity of the animals was rinsed with 4 ml of ice-cold RPMI 1640 medium. The cytolysis of erythrocytes was effected with 0.2% NaCl. The remaining cells were washed twice in a cooled centrifuge at 4° C. and 1500 rpm for 5 minutes with ice-cold RPMI 1640 medium. The cells were re-suspended and the concentration was adjusted to 1.5×10^6/ml. The cell suspension was distributed among the flat bottom wells of a microtitration plate (T grade, Nunc, Denmark). After incubating for 2 hours at 37° C., 5% CO2 and 95% humidity, the wells were rinsed with warm RPMI 1640 medium and the adhering macrophages were used for testing.
(§4) After incubating for 90 minutes at 37° C., 5% CO2 and 95% humidity, the absorbance was measured at the wavelength of 570 nm.
(§5) The results are shown in Table 2 as the difference in the absorbance of the test sample and of the blank, calculated for 1 mg of cell protein.

peritoneal macrophages [5] = assay: Activation of peritoneal macrophages with additional in vitro stimulation with PMA (ferricytochrome C reduction); assay type: in vivo, female HAN-NmRI strain mice; settings: for increase of macrophage activity: versus control
Protocol: as §1, §2, §3, §4, §5

lymphocytes B = assay: Determination of haemolytic plaques for the assessment of the maturation of lymphocytes B; assay type: in vivo, female HAN-NmRI strain mice; settings: 1 μg/mouse one day after sheep erythrocytes i.p.; control 86±12.7
Protocol: as §1
A 1% suspension of sheep erythrocytes (Institute of Microbiology, Faculty of Medicine, Ljubljana, Yugoslavia) in physiological saline was used for the immunisation. First, individual mice were administered 0.2 ml of this suspension by i.p. injection, followed next day by 0.1 ml (1 μg/mouse) of the test substance. The immunisation was completed on the fifth day after the administration of sheep erythrocytes and the mice were sacrificed.
Their spleens were removed and homogenized in Parker 199 Medium with added amminoacids, streptomycin and sodium carbonate (Torlak, Beograd, Yugoslavia). The lymphocytes were separated on the Ficol Separating Medium (Pharmacia, Uppsala, Sweden). After repeated rinsing with Parker 199 Medium, the cells were resuspended in RPMI 1640 nutrient medium with added 10% of fetal calf serum and streptomycin. To 50 μl of the cell suspension, 450 μl of trypan blue were added and the cells were counted in Neubauer's chamber. The number of lymphocytes per ml of the cell suspension was calculated. […] After the completion of the incubation, the plaques were counted under microscope.
The number of plaques per 1×10^6 cells was calculated according to the following equations: [formula]

Fibrosarcoma SA-1 = assay: Antitumour activity, tumour growth delay; assay type: in vivo, A/J strain mice; settings: for Time needed for the tumour growth to the volume of 150 mm^3, Number of days (± SD) / Growth delay (± SD): 5 doses; for Time needed for the tumour growth to the volume of 150 mm^3, Number of days (± SD): control 5.5 ± 0.8; for Growth delay (± SD): versus control group
Protocol: The studies were performed on A/J strain mice (Institute Rudjer Boskovic, Zagreb, Yugoslavia) of 8 to 10 weeks. All animals used in the same experiment were of the same sex and age.
Fibrosarcoma SA-1 was used as the experimental tumour model. Tumorous cells were obtained from the ascitic form of the SA-1 tumour of the syngeneic A/J mouse. They were implanted into animals dorsilaterally by s.c. injection of 5×10^5 live tumour cells. The testing was started after the tumours had grown to a volume of 35 mm^3. The test substance was injected i.p. on five consecutive days in a dose of 2.5 or 25 μg. The growth of the tumours was monitored by measuring the diameters and the thickness of the tumours. The tumour volumes were calculated according to the formula 0.523×a×b×c (a, b and c being the tumour diameters).
The delay in the growth of each individual tumour was obtained by deducting the relevant time of growth of the tumour in the control group from the time needed for the growth of the tumour to reach the volume of 150 mm^3.

[6] = Pyrogenous activity according to the method of USP XXII; assay type: in vivo
Protocol: The pyrogenous activity was determined according to the method of USP XXII.

[7] = Toxicity, average lethal dose (LD50); assay type: in vivo
[8] = daily dose 0.25 μg for 3 consecutive days
[9] = daily dose 2.5 μg for 3 consecutive days
[10] = daily dose 25 μg for 3 consecutive days

In the case of `CC(=O)CCCCCC(=O)N[C@@H](C)C(=O)N[C@H](CCC(=O)O)C(N)=O` [Compound 1, N-(7-oxooctanoyl)-L-alanyl-D-isoglutamine], the “number of splenic lymphocytes B” value [1] is reported as “Neither the number of splenic lymphocites B nor of lymphocytes T was altered to a statistically significant extent”, the “number of splenic lymphocytes T” value [1] is reported as “Neither the number of splenic lymphocites B nor of lymphocytes T was altered to a statistically significant extent” and the “number of peritoneal macrophages” value (peritoneal macrophages [2]) is reported as “not altered to a statistically significant extent”. The “Amount of active thymidine incoporated in lymphocyte DNA (cpm), x ± s.e.m” value (“Amount of active thymidine incoporated” for short) [3, 8] was 16860 ± 5210 cpm, the “Amount of active thymidine incoporated” value [3, 9] was 19080 ± 5470 cpm and the “Amount of active thymidine incoporated” value [3, 10] was 16380 ± 2950 cpm. The “immunomodulatory effect in lymphocytes T compared with MDP” value ([3]; dose of 25 μg) was “statistically greater”, the “increase of the blastic activity of lymphocytes T” value ([3]; dose of 25 μg, concanavalin A, versus control, p<0.05) was “about 70%” and the “dose dependence of macrophage activation” value (peritoneal macrophages [4]; 0.25 to 25 μg) was “dose-dependent”. For the same compound, the “Difference in absorbancies of the test sample and of the blank per mg of cell protein, x ± s.e.m” value (“Difference … per mg of cell protein, x ± s.e.m” for short) (peritoneal macrophages [4]; daily dose 0.25 μg) was 273 ± 40, the “Difference … per mg of cell protein, x ± s.e.m” value (peritoneal macrophages [4]; daily dose 2.5 μg) was 387 ± 56 and the “Difference … per mg of cell protein, x ± s.e.m” value (peritoneal macrophages [4]; daily dose 25 μg) was 518 ± 20. The “increase of macrophage activity” value (peritoneal macrophages [4]; dose 0.25 μg) was “did not increase the activity”, the “increase of macrophage activity” value (peritoneal macrophages [4]; dose 2.5 μg) was 40% and the “increase of macrophage activity” value (peritoneal macrophages [4]; dose 25 μg) was 90%. For the same compound, the “difference in macrophage activation between muramyl dipeptide and compound 1” value (peritoneal macrophages [4]; doses of 2.5 and 25 μg, p>0.05) was “no statistically significant difference”, the “Difference … per mg of cell protein, x ± s.e.m” value (peritoneal macrophages [5]; [8]) was 1480 ± 336 and the “Difference … per mg of cell protein, x ± s.e.m” value (peritoneal macrophages [5]; [9]) was 1630 ± 297. The “Difference … per mg of cell protein, x ± s.e.m” value (peritoneal macrophages [5]; [10]) was 2200 ± 177, the “increase of macrophage activity” value (peritoneal macrophages [5]; dose 0.25 μg (lowest dose)) was “about 50%” and the “increase of macrophage activity” value (peritoneal macrophages [5]; dose 2.5 μg) was “about 60%”. The “increase of macrophage activity” value (peritoneal macrophages [5]; dose 25 μg) was “about 120%”, the “difference in macrophage activation between muramyl dipeptide and compound 1” value (peritoneal macrophages [5]; doses of 2.5 and 25 μg, p>0.05) was “no statistically significant difference” and the “number of plaques (per 1×10^6 cells), x±s.e.m” value (lymphocytes B) was 170±39.9 and 245±75.5. The “Time needed for the tumour growth to the volume of 150 mm^3, Number of days (± SD)” value (Fibrosarcoma SA-1; 2.5 μg daily i.p.) was 7.3 ± 1.5 days, the “Growth delay (± SD)” value (Fibrosarcoma SA-1; 2.5 μg daily i.p.) was 1.8 ± 0.5 and the “Time needed for the tumour growth to the volume of 150 mm^3, Number of days (± SD)” value (Fibrosarcoma SA-1; 25.0 μg daily i.p.) was 7.0 ± 1.7 days. For the same compound, the “Growth delay (± SD)” value (Fibrosarcoma SA-1; 25.0 μg daily i.p.) was 1.5 ± 0.5, the “difference in antitumour activity between the higher and the lower dose” value (Fibrosarcoma SA-1; 25 μg versus 2.5 μg) was “no statistically significant difference” and the “antitumour activity in comparison to the control” value (Fibrosarcoma SA-1; dose of 2.5 μg and dose of 25 μg) was “moderate and statistically significant”. For the same compound, the pyrogenous activity [6] was “did not show any pyrogenous activity”, the “factor by which the immunologically effective dose is lower than LD50” value ([7]; all described immunological effects) was “at least 2000 times” and the “average lethal dose (LD50)” value ([7]; i.v. application, male mice) was > 250 mg/kg.
